Results published in patent US20230002357A1, “7-PYRIMIDINE-2-YL-OXY-INDAZOLE DERIVATIVES AND THEIR USE AS HERBICIDES” (SYNGENTA CROP PROTECTION AG, priority 2019, published 2023).

Legend:
Format in all cases: in vivo
Conditions in all cases: 250 g/ha, evaluated after 13 days
ABUTH [1] = test: Post-emergence Test, glasshouse, ABUTH
Description: (§1) Seeds of a variety of test species are sown in standard soil in pots Amaranthus retoflexus (AMARE), Echinochloa crus-galli (ECHCG), Setaria faberi (SETFA)). After cultivation for one day (pre-emergence) or after 8 days cultivation (post-emergence) under controlled conditions in a glasshouse (at 24/16° C., day/night; 14 hours light; 65% humidity), the plants are sprayed with an aqueous spray solution derived from the formulation of the technical active ingredient in acetone/water (50:50) solution containing 0.5% Tween™ 20 (polyoxyethelyene sorbitan monolaurate, CAS RN 9005-64-5). Compounds are applied at 250 g/ha unless otherwise stated. The test plants are then grown in a glasshouse under controlled conditions in a glasshouse (at 24/16° C., day/night; 14 hours light; 65% humidity) and watered twice daily. After 13 days for pre- and post-emergence, the test is evaluated for the percentage damage caused to the plant. The biological activities are shown in the following table on a five-point scale (5=81-100%; 4=61-80%; 3=41-60%; 2=21-40%; 1=0-20%).

[2] = tested on: Amaranthus retoflexus (AMARE); test: Pre-emergence Test, glasshouse, AMARE
Description: as §1

Setaria faberi (SETFA) [3] = test: Pre-emergence Test, glasshouse, SETFA
Description: as §1

[4] = tested on: Amaranthus retoflexus (AMARE); test: Post-emergence Test, glasshouse, AMARE
Description: as §1

IPOHE [5] = test: Pre-emergence Test, glasshouse, IPOHE
Description: as §1

IPOHE [6] = test: Post-emergence Test, glasshouse, IPOHE
Description: as §1

ABUTH [7] = test: Pre-emergence Test, glasshouse, ABUTH
Description: as §1

Setaria faberi (SETFA) [8] = test: Post-emergence Test, glasshouse, SETFA
Description: as §1

[9] = tested on: Echinochloa crus-galli (ECHCG); test: Post-emergence Test, glasshouse, ECHCG
Description: as §1

[10] = tested on: Echinochloa crus-galli (ECHCG); test: Pre-emergence Test, glasshouse, ECHCG
Description: as §1

Row | SMILES | percentage damage caused to the plant, five-point scale, ABUTH (ABUTH [1]) | percentage damage caused to the plant, five-point scale, AMARE [2] | percentage damage caused to the plant, five-point scale, SETFA (Setaria faberi (SETFA) [3]) | percentage damage caused to the plant, five-point scale, AMARE [4] | percentage damage caused to the plant, five-point scale, IPOHE (IPOHE [5]) | percentage damage caused to the plant, five-point scale, IPOHE (IPOHE [6]) | percentage damage caused to the plant, five-point scale, ABUTH (ABUTH [7]) | percentage damage caused to the plant, five-point scale, SETFA (Setaria faberi (SETFA) [8]) | percentage damage caused to the plant, five-point scale, ECHCG [9] | percentage damage caused to the plant, five-point scale, ECHCG [10]
1 | FC(F)(F)CCCn1nc(Br)c2c(Br)ccc(Oc3ncc(Cl)cn3)c21 [Compound 1.015] | 4 (4=61-80%) | 2 (2=21-40%) | 1 (1=0-20%) | 4 (4=61-80%) | 1 (1=0-20%) | 1 (1=0-20%) | 1 (1=0-20%) | 2 (2=21-40%) | 2 (2=21-40%) | 1 (1=0-20%)
2 | FC(F)(F)CCCn1nc(Br)c2cc(Br)cc(Oc3ncc(Cl)cn3)c21 [Compound 1.016] | 2 (2=21-40%) | 1 (1=0-20%) | 1 (1=0-20%) | 4 (4=61-80%) | 1 (1=0-20%) | 1 (1=0-20%) | 1 (1=0-20%) | 1 (1=0-20%) | 1 (1=0-20%) | 1 (1=0-20%)
3 | N#Cc1cc(Cl)cnc1Oc1cc(Cl)cc2cnn(CCCC(F)(F)F)c12 [Compound 1.017] | 1 (1=0-20%) | 1 (1=0-20%) | 1 (1=0-20%) | 4 (4=61-80%) | 1 (1=0-20%) | 1 (1=0-20%) | 1 (1=0-20%) | 1 (1=0-20%) | 1 (1=0-20%) | 1 (1=0-20%)
4 | FC(F)(F)CCCn1nc(Cl)c2c(Cl)c(Br)cc(Oc3ncc(Cl)cn3)c21 [Compound 1.019] | 1 (1=0-20%) | 1 (1=0-20%) | 1 (1=0-20%) | 4 (4=61-80%) | 1 (1=0-20%) | 1 (1=0-20%) | 1 (1=0-20%) | 2 (2=21-40%) | 2 (2=21-40%) | 1 (1=0-20%)
5 | Fc1cc(Cl)cnc1Oc1ccc(Cl)c2cnn(CCCC(F)(F)F)c12 [Compound 1.031] | 1 (1=0-20%) | 1 (1=0-20%) | 1 (1=0-20%) | 4 (4=61-80%) | 1 (1=0-20%) | 1 (1=0-20%) | 1 (1=0-20%) | 1 (1=0-20%) | 1 (1=0-20%) | 1 (1=0-20%)
6 | COc1nn(CCCC(F)(F)F)c2c(Oc3ncc(Cl)cn3)cccc12 [Compound 1.033, 7-(5-chloropyrimidin-2-yl)oxy-3-methoxy-1-(4,4,4-trifluorobutyl)indazole] | 1 (1=0-20%) | 2 (2=21-40%) | 1 (1=0-20%) | 1 (1=0-20%) | 1 (1=0-20%) | 1 (1=0-20%) | 1 (1=0-20%) | 1 (1=0-20%) | 1 (1=0-20%) | 1 (1=0-20%)
7 | COCCn1nc(Cl)c2cccc(Oc3ncc(Cl)cn3)c21 [Compound 1.034] | 4 (4=61-80%) | 5 (5=81-100%) | 5 (5=81-100%) | 5 (5=81-100%) | 3 (3=41-60%) | 4 (4=61-80%) | 2 (2=21-40%) | 4 (4=61-80%) | 4 (4=61-80%) | 5 (5=81-100%)
8 | FC(F)(F)CCn1nc(Cl)c2cccc(Oc3ncc(Cl)cn3)c21 [Compound 1.035] | 5 (5=81-100%) | 4 (4=61-80%) | 5 (5=81-100%) | 5 (5=81-100%) | 3 (3=41-60%) | 4 (4=61-80%) | 3 (3=41-60%) | 4 (4=61-80%) | 5 (5=81-100%) | 5 (5=81-100%)
9 | FC(F)(F)CCCn1ncc2ccc(Br)c(Oc3ncc(Cl)cn3)c21 [Compound 1.036] | 1 (1=0-20%) | 1 (1=0-20%) | 1 (1=0-20%) | 1 (1=0-20%) | 1 (1=0-20%) | 1 (1=0-20%) | 1 (1=0-20%) | 1 (1=0-20%) | 1 (1=0-20%) | 1 (1=0-20%)
10 | FC(F)(F)CCCn1nc(Cl)c2ccc(Br)c(Oc3ncc(Cl)cn3)c21 [Compound 1.037] | 1 (1=0-20%) | 1 (1=0-20%) | 1 (1=0-20%) | 2 (2=21-40%) | 1 (1=0-20%) | 1 (1=0-20%) | 1 (1=0-20%) | 1 (1=0-20%) | 1 (1=0-20%) | 1 (1=0-20%)
11 | FCCCCn1nc(Cl)c2cccc(Oc3ncc(Cl)cn3)c21 [Compound 1.039] | 4 (4=61-80%) | 5 (5=81-100%) | 5 (5=81-100%) | 5 (5=81-100%) | 1 (1=0-20%) | 4 (4=61-80%) | 3 (3=41-60%) | 4 (4=61-80%) | 4 (4=61-80%) | 5 (5=81-100%)
12 | FC(F)CCCn1nc(Cl)c2cccc(Oc3ncc(Cl)cn3)c21 [Compound 1.040] | 4 (4=61-80%) | 5 (5=81-100%) | 5 (5=81-100%) | 5 (5=81-100%) | 2 (2=21-40%) | 5 (5=81-100%) | 4 (4=61-80%) | 4 (4=61-80%) | 5 (5=81-100%) | 5 (5=81-100%)
